Results taken from US20080242542A1, “INDANILINE DYE, THERMAL TRANSFER RECORDING INK SHEET, THERMAL TRANSFER RECORDING METHOD, COLOR TONER, INKJET INK, AND COLOR FILTER” (FUJIFILM Corporation, priority 2007, published 2008).

Columns and labels:
[1] = Light fastness of recorded image under Xe light; assay type: physicochemical; settings: Xe light (17000 lux) for 7 days; retention of reflection density 1.0
Experimental: Next, the recorded samples were exposed to an Xe light (17000 lux) for 7 days, and rested for the light stability (light fastness) of the recorded images. After the exposure, the status A reflection density of the part of each sample having an original status A reflection density of 1.0 before the exposure was measured, and the retention (by percentage) to the reflection density of 1.0 after exposure to that before exposure indicates the image stability. With the retention percentage, the samples were ranked in three, A (from 80% to less than 100%), B (from 60% to less than 80%) , C (less than 60%).

[2] = Absorption spectrometry in ethyl acetate solution; assay type: physicochemical; settings: 1×10^−6 mol/L, optical path length 10 mm
Experimental: The thus-obtained compounds (1) to (4) were analyzed for absorption spectrometry in an ethyl acetate solution (concentration: 1×10^−6 mol/L, optical path length; 10 mm). The data of ^1H NMR spectrometry (in heavy chloroform) and MS spectrometry of the obtained compounds (1) to (4) are shown in Table 1 below.

SMILES	Light Fastness [1]	Maximum Absorption Wavelength [2] [nm]
CCN(CC)c1ccc(N=C2C=C(NC(C)=O)C(=O)C(Cl)=C2C)cc1 [Comparative Dye 1]	A (A (from 80% to less than 100%))	–
CCN(CC)c1ccc(N=C2C=C(NC(C)=O)C(=O)C=C2C)c(C)c1 [Comparative Dye 3]	B (B (from 60% to less than 80%))	–
CCN(CC)c1ccc(N=C2C=C(NC(C)=O)C(=O)C(Cl)=C2C)c(C)c1 [Comparative Dye 4]	A (A (from 80% to less than 100%))	–
CCN(CC)c1ccc(N=C2C=C(NC(=O)c3ccccc3)C(=O)C(Cl)=C2C)c(C)c1 [Comparative Dye 5]	A (A (from 80% to less than 100%))	–
CCC(=O)NC1=CC(=Nc2ccc(N(CC)CC)cc2)C(C)=C(Cl)C1=O [Compound (1)]	A (A (from 80% to less than 100%))	626
